Reference: patent US20130116241A1, “NOVEL INHIBITOR COMPOUNDS OF PHOSPHODIESTERASE TYPE 10A” (AbbVie Inc., priority 2011, published 2013)
Where a name gives a salt, the structure may show the parent alone.

biological target: human PDE10A (UniProt Q9Y233); test: Measurement of PDE activity (recombinant enzyme, HTRF cAMP kit); format: biochemical; settings: Table 1, substrate 20 nM for PDE10, 60 minutes at 29 C
Procedure, shortened: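 HTRF detection of cAMP left after hydrolysis, expressed as percent of uninhibited control to derive IC50. Reaction: serially diluted inhibitor mixed with recombinant enzyme, started with 20 nM cAMP, 60 min at 29 °C in Tris-HCl pH 7.5 buffer containing MgCl2 and BSA.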

human PDE10A, sequence (Q9Y233 290-1055 limits assumed): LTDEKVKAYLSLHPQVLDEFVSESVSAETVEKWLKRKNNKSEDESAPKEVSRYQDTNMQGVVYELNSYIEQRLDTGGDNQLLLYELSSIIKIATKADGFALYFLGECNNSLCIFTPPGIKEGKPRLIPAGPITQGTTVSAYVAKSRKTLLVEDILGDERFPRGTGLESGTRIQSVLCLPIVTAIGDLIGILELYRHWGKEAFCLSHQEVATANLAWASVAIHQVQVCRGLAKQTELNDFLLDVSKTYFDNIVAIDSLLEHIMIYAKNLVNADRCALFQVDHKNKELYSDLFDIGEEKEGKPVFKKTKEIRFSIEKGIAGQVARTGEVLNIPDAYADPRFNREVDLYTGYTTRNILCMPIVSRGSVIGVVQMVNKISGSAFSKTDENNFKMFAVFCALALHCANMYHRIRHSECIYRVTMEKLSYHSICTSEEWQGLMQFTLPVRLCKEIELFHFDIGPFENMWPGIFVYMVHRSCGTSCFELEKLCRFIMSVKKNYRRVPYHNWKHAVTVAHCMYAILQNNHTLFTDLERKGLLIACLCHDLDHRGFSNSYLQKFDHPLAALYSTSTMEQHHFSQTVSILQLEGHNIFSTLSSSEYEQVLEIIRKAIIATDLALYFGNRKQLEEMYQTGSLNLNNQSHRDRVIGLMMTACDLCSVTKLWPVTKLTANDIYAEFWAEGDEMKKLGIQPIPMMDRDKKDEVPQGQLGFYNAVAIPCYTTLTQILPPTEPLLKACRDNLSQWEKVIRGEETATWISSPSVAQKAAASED

| SMILES | IC50 [nM] |
| --- | --- |
| O=c1c2c(N3C4CCC3COC4)cccc2cnn1CCc1cn2ccccc2n1 [compound 338, 2-[2-(imidazo[1,2-a]pyridin-2-yl)ethyl]-8-(3-oxa-8-azabicyclo[3.2.1]oct-8-yl)phthalazin-1(2H)-one] | < 100 |
| O=c1c2c(C3=CCNCC3)cccc2cnn1CCc1cn2ccccc2n1 [compound 375, hydrochloride] | < 100 |

same assay, conditions: Table 1, substrate 20 nM for PDE10, 60 minutes at 29 C, read-out: IC50

| SMILES | IC50 [nM] |
| --- | --- |
| Cc1ncc(-c2cccc3cnn(CCc4cn5ccccc5n4)c(=O)c23)cn1 [compound 342, 2-[2-(imidazo[1,2-a]pyridin-2-yl)ethyl]-8-(2-methylpyrimidin-5-yl)phthalazin-1(2H)-one] | 100 to 200 |
| O=c1c2c(-c3cnc(C4CC4)nc3)cccc2cnn1CCc1cn2ccccc2n1 [compound 343, 8-(2-cyclopropylpyrimidin-5-yl)-2-[2-(imidazo[1,2-a]pyridin-2-yl)ethyl]phthalazin-1(2H)-one] | 200 to 500 |
| O=c1c2c(-c3ccnnc3)cccc2cnn1CCc1cn2ccccc2n1 [compound 344, 2-[2-(imidazo[1,2-a]pyridin-2-yl)ethyl]-8-(pyridazin-4-yl)phthalazin-1(2H)-one] | 100 to 200 |
| O=c1c2c(-c3cncc(F)c3)cccc2cnn1CCc1cn2ccccc2n1 [compound 345, hydrochloride] | 100 to 200 |
| COc1ncc(-c2cccc3cnn(CCc4cn5ccccc5n4)c(=O)c23)cn1 [compound 347, 2-[2-(imidazo[1,2-a]pyridin-2-yl)ethyl]-8-(2-methoxypyrimidin-5-yl)phthalazin-1(2H)-one] | 100 to 200 |
| O=c1c2c(-c3ccnc(C(F)(F)F)c3)cccc2cnn1CCc1cn2ccccc2n1 [compound 348, 2-[2-(imidazo[1,2-a]pyridin-2-yl)ethyl]-8-[2-(trifluoromethyl)pyridin-4-yl]phthalazin-1(2H)-one] | 100 to 200 |
| O=c1c2c(C3CCNCC3)cccc2cnn1CCc1cn2ccccc2n1 [compound 354, hydrochloride] | < 100 |
| O=c1c2c(-c3ccco3)cccc2cnn1CCc1cn2ccccc2n1 [compound 358, hydrochloride] | 100 to 200 |
| Cn1cc(-c2cccc3cnn(CCc4cn5ccccc5n4)c(=O)c23)cn1 [compound 359, hydrochloride] | < 100 |
| O=c1c2c(C3CCNCC3)cccc2cnn1CCc1cn2c(n1)CCCC2 [compound 365, hydrochloride] | < 100 |
| NCC1CC(Cl)CN1c1cccc2cnn(CCc3cn4ccccc4n3)c(=O)c12 (stereo not shown) [compound 366, trifluoroacetate] | < 100 |
| O=c1c2c(-c3ccncc3)cccc2c(-c2ccncc2)nn1CCc1cn2ccccc2n1 [compound 367, 2-[2-(imidazo[1,2-a]pyridin-2-yl)ethyl]-4,8-di(pyridin-4-yl)phthalazin-1(2H)-one] | < 100 |
| O=c1c2c(-c3ccncc3)cccc2c(Br)nn1CCc1cn2ccccc2n1 [compound 370, 4-bromo-2-[2-(imidazo[1,2-a]pyridin-2-yl)ethyl]-8-(pyridin-4-yl)phthalazin-1(2H)-one] | < 100 |
| O=c1c2c(OCC3COC(CO)CO3)cccc2cnn1CCc1cn2ccccc2n1 (stereo not shown) [compound 378, 8-{[5-(hydroxymethyl)-1,4-dioxan-2-yl]methoxy}-2-[2-(imidazo[1,2-a]pyridin-2-yl)ethyl]phthalazin-1(2H)-one] | 200 to 500 |
| O=c1c2c(Oc3cccnc3)cccc2cnn1CCc1cn2ccccc2n1 [compound 382, 2-[2-(imidazo[1,2-a]pyridin-2-yl)ethyl]-8-(pyridin-3-yloxy)phthalazin-1(2H)-one] | < 100 |
| O=c1c2c(NCC3COC3)cccc2cnn1CCc1cn2ccccc2n1 [compound 383, 2-[2-(imidazo[1,2-a]pyridin-2-yl)ethyl]-8-[(oxetan-3-ylmethyl)amino]phthalazin-1(2H)-one] | < 100 |
| CN1CC(Nc2cccc3cnn(CCc4cn5ccccc5n4)c(=O)c23)C1 [compound 385, 2-[2-(imidazo[1,2-a]pyridin-2-yl)ethyl]-8-[(1-methylazetidin-3-yl)amino]phthalazin-1(2H)-one] | 200 to 500 |
| O=c1c2c(NC3CCNCC3)cccc2cnn1CCc1cn2ccccc2n1 [compound 388, dihydrochloride] | < 100 |
| CC(=O)N1CCCC(Nc2cccc3cnn(CCc4cn5ccccc5n4)c(=O)c23)C1 (stereo not shown) [compound 389, hydrochloride] | 100 to 200 |
| CC(=O)N1CCC(Nc2cccc3cnn(CCc4cn5ccccc5n4)c(=O)c23)CC1 [compound 390, 8-[(1-acetylpiperidin-4-yl)amino]-2-[2-(imidazo[1,2-a]pyridin-2-yl)ethyl]phthalazin-1(2H)-one] | 200 to 500 |
| O=c1c2c(NC3CCCNC3)cccc2cnn1CCc1cn2ccccc2n1 (stereo not shown) [compound 393, dihydrochloride] | < 100 |
| CN(CC1(C)COC1)c1cccc2cnn(CCc3cn4ccccc4n3)c(=O)c12 [compound 394, 2-[2-(imidazo[1,2-a]pyridin-2-yl)ethyl]-8-{methyl[(3-methyloxetan-3-yl)methyl]amino}phthalazin-1(2H)-one] | 200 to 500 |
| O=c1c2cccc(-c3ccncc3)c2cnn1CCc1nc2ccccc2[nH]1 [compound 398, 2-[2-(1H-benzimidazol-2-yl)ethyl]-5-(pyridin-4-yl)phthalazin-1(2H)-one] | 100 to 200 |
| O=c1c2cccc(-c3ccncc3)c2cnn1CCc1cn2ccccc2n1 [compound 401, 2-[2-(imidazo[1,2-a]pyridin-2-yl)ethyl]-5-(pyridin-4-yl)phthalazin-1(2H)-one] | < 100 |
| CC1(CNc2cccc3cnn(CCc4cn5ccccc5n4)c(=O)c23)COC1 [compound 403] | < 100 |

Other lines, results leading:

| IC50 [nM] | SMILES |
| --- | --- |
| < 100 | O=c1c2c(C3CCOC3)cccc2cnn1CCc1cn2ccccc2n1 (stereo not shown) [compound 337, 2-[2-(imidazo[1,2-a]pyridin-2-yl)ethyl]-8-(tetrahydrofuran-3-yl)phthalazin-1(2H)-one] |
| < 100 | O=c1c2c(N3CCC4(COC4)C3)cccc2cnn1CCc1cn2ccccc2n1 [compound 339, 2-[2-(imidazo[1,2-a]pyridin-2-yl)ethyl]-8-(2-oxa-6-azaspiro[3.4]oct-6-yl)phthalazin-1(2H)-one] |
| < 100 | O=c1c2c(N3CCC(O)CC3)cccc2cnn1CCc1cn2ccccc2n1 [compound 341, 8-(4-hydroxypiperidin-1-yl)-2-[2-(imidazo[1,2-a]pyridin-2-yl)ethyl]phthalazin-1(2H)-one] |
| < 100 | O=c1c2c(N3CC4CCC(C3)O4)cccc2cnn1CCc1cn2ccccc2n1 [compound 349, 2-[2-(imidazo[1,2-a]pyridin-2-yl)ethyl]-8-(8-oxa-3-azabicyclo[3.2.1]oct-3-yl)phthalazin-1(2H)-one] |
| < 100 | O=c1c2c(C3CCOCC3)cccc2cnn1CCc1cn2ccccc2n1 [compound 355, 2-[2-(imidazo[1,2-a]pyridin-2-yl)ethyl]-8-(tetrahydro-2H-pyran-4-yl)phthalazin-1(2H)-one] |
| 200 to 500 | O=c1c2c(N3CC4CCOC4C3)cccc2cnn1CCc1cn2ccccc2n1 (stereo not shown) [compound 374, hydrochloride] |
| < 100 | O=c1c2c(N[C@H]3CCOC3)cccc2cnn1CCc1cn2ccccc2n1 [compound 376, 2-[2-(imidazo[1,2-a]pyridin-2-yl)ethyl]-8-[(3S)-tetrahydrofuran-3-ylamino]phthalazin-1(2H)-one] |
| < 100 | O=c1c2c(N[C@@H]3CCOC3)cccc2cnn1CCc1cn2ccccc2n1 [compound 377, 2-[2-(imidazo[1,2-a]pyridin-2-yl)ethyl]-8-[(3R)-tetrahydrofuran-3-ylamino]phthalazin-1(2H)-one] |
| 100 to 200 | O=c1c2c(OCc3ccncc3)cccc2cnn1CCc1cn2ccccc2n1 [compound 380, 2-[2-(imidazo[1,2-a]pyridin-2-yl)ethyl]-8-(pyridin-4-ylmethoxy)phthalazin-1(2H)-one] |
| 100 to 200 | O=c1c2c(NC3CCOCC3)cccc2cnn1CCc1cn2ccccc2n1 [compound 384, 2-[2-(imidazo[1,2-a]pyridin-2-yl)ethyl]-8-(tetrahydro-2H-pyran-4-ylamino)phthalazin-1(2H)-one] |
| < 100 | CN(c1cccc2cnn(CCc3cn4ccccc4n3)c(=O)c12)C1COC1 [compound 387, 2-[2-(imidazo[1,2-a]pyridin-2-yl)ethyl]-8-[methyl(oxetan-3-yl)amino]phthalazin-1(2H)-one] |
| < 100 | O=c1c2c(NC3CCOC3)cccc2cnn1CCc1cn2ccccc2n1 (stereo not shown) [compound 391, 2-[2-(imidazo[1,2-a]pyridin-2-yl)ethyl]-8-(tetrahydrofuran-3-ylamino)phthalazin-1(2H)-one] |
| < 100 | O=c1c2c(NC3CCCOC3)cccc2cnn1CCc1cn2ccccc2n1 (stereo not shown) [compound 392, hydrochloride] |
| < 100 | O=c1c2c(NC3COC3)cccc2cnn1CCc1cn2ccccc2n1 [compound 395, 2-[2-(imidazo[1,2-a]pyridin-2-yl)ethyl]-8-(oxetan-3-ylamino)phthalazin-1(2H)-one] |
| < 100 | O=c1c2cccc(N3CCOCC3)c2cnn1CCc1ccc2ccccc2n1 [compound 397, hydrochloride] |
| < 100 | O=c1c2ccccc2c(-c2cccnc2)nn1CCc1ccc2ccccc2n1 [compound 399, 4-(pyridin-3-yl)-2-[2-(quinolin-2-yl)ethyl]phthalazin-1(2H)-one] |
| < 100 | O=c1c2cccc(-c3cccnc3)c2cnn1CCc1ccc2ccccc2n1 [compound 402, 5-(pyridin-3-yl)-2-[2-(quinolin-2-yl)ethyl]phthalazin-1(2H)-one] |
| < 100 | O=c1c2c(-c3ccncc3)ccnc2cnn1CCc1ccc2ccccc2n1 [compound 404, 4-(pyridin-4-yl)-6-[2-(quinolin-2-yl)ethyl]pyrido[2,3-d]pyridazin-5(6H)-one] |
| < 100 | O=c1c2c(N3CCOCC3)ccnc2cnn1CCc1ccc2ccccc2n1 [compound 405, 4-(morpholin-4-yl)-6-[2-(quinolin-2-yl)ethyl]pyrido[2,3-d]pyridazin-5(6H)-one] |
